Experimental data: PMC9583845, “Characterization of the chicken melanocortin 5 receptor and its potential role in regulating hepatic glucolipid metabolism” (Frontiers in Physiology, 2022)
Entries after “also recorded” stand apart in the source; their conditions may differ.

Experiments:
[1] = tested on: MC5R mRNA, primary chicken hepatocytes; experiment: MC5R mRNA in primary chicken hepatocytes, RT-qPCR; format: cell-based; conditions: primary chicken hepatocytes, 6 h, N = 4, vs β-actin, Figures 6C-E
Experimental: To evaluate the effect of ACTH1-39 on chicken liver, the chicken hepatocytes were prepared and maintained as a monolayer culture. Briefly, one-month-old male chicken hepatocytes were isolated by perfusion of a liver with Ca^2+-free KRB buffer to remove blood cells, and being digested with 0.25% collagenase-I for 10 min. Hepatocytes were obtained following filtering and washing using M199 medium. Then the hepatocytes were plated in a Corning CellBIND 48-well microplate (Corning, NY, cat. no.3338) with M199 medium containing 100 U/ml penicillin and […] streptomycin (Gibco), 5 μg/ml bovine insulin (Sigma), and 5% FBS at 37°C in a 5% CO2 atmosphere. To adhere to the wall, the cells were incubated on the 48-well plate for 4 h. For quantitative real-time PCR, primary cultured chicken hepatocytes were treated with various concentrations of ACTH1-39 (or other composition) at 37°C for 6 h. The relative amount of mRNA was calculated using the comparative Ct method. Chicken β-actin gene was used as the reference gene. Amplification of specific transcripts was confirmed by analyzing the melting curve profile performed at the end of each run and by determining the size of the PCR products using agarose electrophoresis and ethidium bromide staining.

[2] = tested on: ELOVL6 mRNA, primary chicken hepatocytes; experiment: ELOVL6 mRNA in primary chicken hepatocytes, RT-qPCR; format: cell-based; conditions: 6 h, N = 4, Figures 8A-C
Experimental: (§1) To evaluate the effect of ACTH1-39 on chicken liver, the chicken hepatocytes were prepared and maintained as a monolayer culture. Briefly, one-month-old male chicken hepatocytes were isolated by perfusion of a liver with Ca^2+-free KRB buffer to remove blood cells, and being digested with 0.25% collagenase-I for 10 min. Hepatocytes were obtained following filtering and washing using M199 medium. Then the hepatocytes were plated in a Corning CellBIND 48-well microplate (Corning, NY, cat. no.3338) with M199 medium containing 100 U/ml penicillin and […] streptomycin (Gibco), 5 μg/ml bovine insulin (Sigma), and 5% FBS at 37°C in a 5% CO2 atmosphere. To adhere to the wall, the cells were incubated on the 48-well plate for 4 h.
(§2) For quantitative real-time PCR, primary cultured chicken hepatocytes were treated with various concentrations of ACTH1-39 (or other composition) at 37°C for 6 h. The relative amount of mRNA was calculated using the comparative Ct method. Chicken β-actin gene was used as the reference gene. Amplification of specific transcripts was confirmed by analyzing the melting curve profile performed at the end of each run and by determining the size of the PCR products using agarose electrophoresis and ethidium bromide staining.

[3] = tested on: THRSPA mRNA, primary chicken hepatocytes; experiment: THRSPA mRNA in primary chicken hepatocytes, RT-qPCR; format: cell-based; conditions: 6 h, N = 4, Figures 8D-F
Experimental: as §1, §2

[4] = biological target: T1, chicken MC5R (Gallus gallus, UniProt O73671); experiment: pGL3-CRE-luciferase reporter assay, CHO cells expressing chicken MC5R; format: cell-based; conditions: for ability to activate / sensitivity of cMC5R (in words, ranking): CHO cells expressing cMC5R; for EC50: Figure 2B, CHO cells transiently expressing cMC5R, 10^−12–10^−6 M, 6 h, mean ± SEM of three replicates (N = 3), representative of three independent experiments, read-out: EC50 (activation of cMC5R)
T1 sequence (O73671 1-325): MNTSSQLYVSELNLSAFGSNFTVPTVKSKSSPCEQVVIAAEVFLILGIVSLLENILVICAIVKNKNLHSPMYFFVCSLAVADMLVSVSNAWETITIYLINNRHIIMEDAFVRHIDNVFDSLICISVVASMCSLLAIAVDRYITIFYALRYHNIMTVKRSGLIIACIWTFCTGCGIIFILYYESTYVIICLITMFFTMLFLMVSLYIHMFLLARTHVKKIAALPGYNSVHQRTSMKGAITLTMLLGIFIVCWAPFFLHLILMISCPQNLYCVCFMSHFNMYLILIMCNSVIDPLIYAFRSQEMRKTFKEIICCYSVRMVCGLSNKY
Excerpt: All chemicals were purchased from Sigma-Aldrich (St. Louis, MO, United States) and the restriction enzymes were obtained from TaKaRa (Dalian, China). […] All primers used in this study were synthesized by Beijing Genome Institute (BGI, China) and listed in Supplementary Table 1.
The expression plasmids encoding MC5R, MRAP1 and MRAP2 were established by cloning their entire open reading frame (ORF) into the pcDNA3.1 (+) expression vector (Invitrogen).
The cells were then transfected with a mixture containing 700 ng pGL3-CRE-Luciferase reporter construct, 200 ng of receptor expression plasmid (or empty pcDNA3.1 vector as a negative control), 20 ng of pRL-TK construct (containing a Renilla luciferase gene, used as an internal control), and 2 μl jetPRIME transfection reagent (Polyplus Transfection, Illkirch, France) in 200 μL buffer. […] After removal of the medium from the 96-well plate, the cells were treated with 100 μl ligand-containing medium (or ligand-free medium) for 6 h. Finally, CHO cells were lysed with 1 × passive lysis buffer for luciferase assay (Promega) and the luciferase activity of the cell lysate was measured by a Multimode Microplate Reader (TriStar LB941, EG&G Berthold, Germany) according to the manufacturer’s instruction.
All statistical analysis was performed using GraphPad Prism 9 (Graph Pad Software Inc., San Diego, CA). The dose-response curves were constructed using nonlinear regression models. Student’s test was used to compare two groups, for more than two groups one-way ANOVA was performed followed by Dunnett’s test. To validate our results, all in-vitro experiments were repeated three times, and representative data are reported.

[5] = biological target: T1, chicken MC5R; set-up: method as in 3 sources, ref Ling et al., 2004 ||| ref Dores et al., 2020 ||| ref Schioth et al., 1997; Ling et al., 2004; conditions: ref Schioth et al., 1997; Ling et al., 2004; cited from earlier work
[6] = tested on: human MC5R; conditions: ref Schioth et al., 1997; Ling et al., 2004; cited from earlier work
Excerpt: The luciferase reporter system was then employed to investigate the signal pathway of MC5R coupling. […] Human peptides have previously been ...

[7] = tested on: chicken MC5R D119A; conditions: ref Min et al., 2019; cited from earlier work
[8] = tested on: chicken MC5R D204A; conditions: ref Min et al., 2019; cited from earlier work
[9] = tested on: hMC5R + MRAP2; conditions: in vitro; ref Chan et al., 2009; cited from earlier work
Excerpt: Our results were consistent with previous results. […] In zebrafish, MRAP2a decreased the surface expression and efficacy of MC5Ra/MC5Rb, but not MRAP2b, in the same manner as mouse MRAP2 did ([Zhu et al., 2019]). In ricefield eel (Monopterus albus), two isoforms of MRAP2 (maMRAP2X1 and maMRAP2X2) significa ...

[10] = tested on: chicken MC5R F254A; conditions: ref Min et al., 2019; cited from earlier work
[11] = tested on: AC/cAMP/PKA signaling (cMC5R); experiment: Inhibition of ACTH- or α-MSH-stimulated luciferase activity in CHO cells expressing cMC5R; format: cell-based, chicken; conditions: for inhibition of ACTH-stimulated luciferase activity: inhibitor (H89 10 μM, MDL 5 μM) added 0.5 h before ACTH (10 nM, 6 h), Figure 2E; for inhibition of α-MSH-stimulated luciferase activity: inhibitor (H89 10 μM, MDL 5 μM) added 0.5 h before α-MSH (10 nM, 6 h), Figure 2F
Experimental: In brief, CHO cells were cultured on a six-well plate (Nunc, Roskilde, Denmark) and grown for 24 h before transfection. The cells were then transfected with a mixture containing 700 ng pGL3-CRE-Luciferase reporter construct, 200 ng of receptor expression plasmid (or empty pcDNA3.1 vector as a negative control), 20 ng of pRL-TK construct (containing a Renilla luciferase gene, used as an internal control), and 2 μl jetPRIME transfection reagent (Polyplus Transfection, Illkirch, France) in 200 μL buffer. Twenty-four hours later, CHO cells were sub-cultured into a 96-well plate at 37°C for an additional 24 h before treatment. After removal of the medium from the 96-well plate, the cells were treated with 100 μl ligand-containing medium (or ligand-free medium) for 6 h. Finally, CHO cells were lysed with 1 × passive lysis buffer for luciferase assay (Promega) and the luciferase activity of the cell lysate was measured by a Multimode Microplate Reader (TriStar LB941, EG&G Berthold, Germany) according to the manufacturer’s instruction.
To test whether cMRAP1 and cMRAP2 can alter the pharmacological properties of cMC5R, CHO cells co-expressing MC5R and cMRAP1/cMRAP2 were treated with chicken ACTH1–39/α-MSH, and the relative potential of these two peptides to activate the receptor was also determined using the pGL3-CRE-luciferase reporter system. At the same time, H89 (a PKA inhibitor, 10 μM) and MDL12330 A (an AC inhibitor, 5 μM) were used to further determine the signal pathways activated by ACTH1-39/α-MSH.

## C=C[C@@]1(C)CC(=O)[C@]2(O)[C@@]3(C)[C@@H](O)CCC(C)(C)[C@@H]3[C@H](O)[C@H](OC(C)=O)[C@@]2(C)O1 [forskolin]
[1]
  MC5R mRNA abundance (in words): significantly increased MC5R mRNA abundance; also recorded: enhance the expression of MC5R in cultured hepatocytes in a dose-dependent manner
[2]
  ELOVL6 mRNA expression: did not affect the expression
[2]; listed as Forskolin
  ELOVL6 mRNA expression: not affected
[3]
  THRSPA mRNA expression: did not affect the expression
[3]; listed as Forskolin
  THRSPA mRNA expression: not affected

## Nc1ncnc2c1nc(Br)n2[C@@H]1O[C@@H]2COP(=O)(O)O[C@H]2[C@H]1O [8-Br-cAMP]
[1]
  MC5R mRNA abundance (in words): dose-dependent increase in MC5R mRNA abundance; also recorded: enhance the expression of MC5R in cultured hepatocytes in a dose-dependent manner
[2]
  ELOVL6 mRNA expression: not affected; also recorded: did not affect the expression
[3]
  THRSPA mRNA expression: not affected; also recorded: did not affect the expression

## Ac-YVMSHFRWNKF-NH2 [γ-MSH]
[4]
  ability to activate / sensitivity of cMC5R (in words, ranking): ACTH1-39 ≈ α-MSH > β-MSH > γ-MSH
  EC50: 144 ± 15.4 nM

## hACTH1-39: human ACTH1-39 (SYSMEHFRWGKPVGKKRRPVKVYPNGAEDESAEAFPLEF; Corticotropin; UniProt P01189 138-176, looked up)
[5]
  ability of hACTH1-39 vs hACTH1-24 to activate chicken MC5R: no different
[6]
  ability of hACTH1-39 vs hACTH1-24 to activate human MC5R: no different

## SHU9119
[7]
  response of D119A mutant: completely unresponsive
[8]
  response of D204A mutant: completely unresponsive

## NDP-MSH
[9]
  efficacy at hMC5R with MRAP2: reduced the efficacy of hMC5R to NDP-MSH
[10]
  reactivity of F254A mutant: significantly reduced the reactivity
[7]
  response of D119A mutant: completely unresponsive
[8]
  response of D204A mutant: completely unresponsive

## O=S(=O)(NCCNC/C=C/c1ccc(Br)cc1)c1cccc2cnccc12 [H89]
[11]
  inhibition of ACTH-stimulated luciferase activity: significantly inhibit
  inhibition of α-MSH-stimulated luciferase activity: significantly inhibit

## Cl.c1ccc(C2CCCC2NC2=NCCCCCCCCCCC2)cc1 (stereo not drawn) [MDL12330 A]
[11]
  inhibition of ACTH-stimulated luciferase activity: significantly inhibit
  inhibition of α-MSH-stimulated luciferase activity: significantly inhibit

## H-DGGSYRMRHFRWHAPLKD-OH [β-MSH]
[4]
  ability to activate / sensitivity of cMC5R (in words, ranking): ACTH1-39 ≈ α-MSH > β-MSH > γ-MSH
  EC50: 38.7 ± 6.51 nM
